Measurements published in patent US20090156644A1, “Use of thiazole derivatives and analogues in the treatment of cancer” (priority 2005, published 2009).

What was measured:
[1] = tested on: MDA-MB-231 cells; test: Test A cell proliferation assay (FFA/linolenic acid stimulated, S-phase by flow cytometry); assay type: cell-based, human; details: linolenic acid 100 μM, 24 hours; Compounds X and Y 10 μM, Compound Z 40 μM; FIGS. 1c, 2A-2C
Procedure: Dulbecco's modified Eagle's medium (D-MEM)+1000 mg/L Glucose+GlutaMAX™1+Pyruvate (Gibco #21885-025)
PEST (100 U/ml penicillin, 100 ug/ml streptomycin, Gibco 15140-122) CyStain PI absolute T Kit (Partec #05-5023) Linolenic acid 99%, L2376 from Sigma Aldrich Dimethyl sulfoxide (DMSO)
Cytomics™ FC500 Flow Cytometer with CXP software (Beckman Coulter) MDA-MB-231 cells
MDA-MB-231 cells were cultured in the propagation media D-MEM+1000 mg/L Glucose+GlutaMAX™1+Pyruvate supplemented with 10% V/V Foetal Bovine Serum and PEST (100 U/ml penicillin, 100 μg/mL streptomycin). Cells were seeded in 6 well plates to a density of 300 000 cells/well in propagation media. After 24 hours, media was replaced with serum free D-MEM media.
Linolenic acid was diluted in DMSO to a concentration of 100 mM and added to the culture media to a final concentration of 100 μM.
Compounds were as dissolved in DMSO to a concentrations of 10 mM (Compounds of Examples 95 and 6 (Compound X and Compound Y, respectively)) and 40 mM (Compound of Example 4 (Compound Z)) and added to the culture media to a final concentration of 10 μM (X and Y) and 40 μM (Z) respectively.
After 24 hours in serum free media DMEM, linolenic acid (to a final concentration of […]) and compounds to be screened for activity were added to a final concentration of 10 μM (Compounds X and Y) and 40 μM (Compound Z) respectively. Final DMSO concentration was kept at 0.2% in all wells. After 24 hours of stimulation, cells were harvested and propidium iodine stained using a CyStain PI absolute T Kit according to manufacturer's recommendations. Cells were subsequently analyzed using a Cytomics™ FC500 Flow Cytometer with CXP software (Beckman Coulter) for cell cycle distribution. Cells were incubated with or without linolenic acid (LA) and the Compounds X, Y and Z for 24 hours at indicated concentrations. Cells in S-phase from untreated sample were set to 100% in each experiment.

[2] = tested on: MDA-MB-231 human breast cancer cells; test: Test B in vivo mouse model, tumor histology; set-up: species or system Athymic BALB/cA nude mice; details: 1 mg/kg intraperitoneal once daily for 9 days; for cell density in the interior of the tumor section / cells displaying macrophage/monocyte morphology in the interior of the tumor section: hematoxylin stained cryosections, versus vehicle
Procedure: week old Athymic BALB/cA nude mice were delivered from Taconic (Denmark) and kept under barrier conditions for 1 week acclimatisation. At 6 weeks, 17 mice were injected subcutaneously on the flank with 1.8×10^6 MDA-MB-231 human breast cancer cells (LGC Promochem-ATCC) in a 50/50 v/v solution of phosphate buffered saline (PBS) (Gibco 10010-015, Invitrogen) Matrigel HC (BD Biosciences).
2 mice were sacrificed and the tumors dissected and examined. 2 groups of 7 mice each were treated once daily by intraperitoneal injections of 1 mg/kg bodyweight of the compound of Example 6 (Compound Y) in PBS/1% v/v dimethylsufoxide or vehicle control respectively for 9 days. The mice were sacrificed by cervical dislocation and tumors were dissected.
The tumor tissue were fixated overnight in PBS (containing 4% w/v paraformaldehyde (Scharlau PA0095, Sharlau Chemie SA, Spain) at +4° C. The tumor tissue were then cryopreserved by 24 hour incubation in PBS containing 30% w/v sucrose (BDH #102745C (www.vwr.com) at +4° C. and embedded in Tissue-Tek embedding media (Sakura Finetek Europa BV, Netherlands). 10 μm cryosections were generated an stained with Mayers Hematoxylin (Dako) for 5 min and destained for 3×10 minutes in tap water. Slides were mounted using Dako faramount aqueous mounting medium and examined using a Nikon Eclipse TS 100 microscope documented using a Nikon coolpix 4500.
The tumors from mice treated with test compound and vehicle were analyzed for morphology by microscopic examination of hematoxylin stained cryosections.

Row | Compound | antagonism of free fatty acid stimulated cell proliferation [1] | cells displaying fibroblast morphology in the interior of the tumor section ([2]; hematoxylin stained cryosection, 20× magnification) | cell density in the interior of the tumor section [2] | cells displaying macrophage/monocyte morphology in the interior of the tumor section [2] | cell density in the interior of the tumor section ([2]; listed as test compound) | cells displaying macrophage/monocyte morphology in the interior of the tumor section ([2]; listed as test compound)
1 | O=C1NC(=Nc2ccccn2)SC1Cc1ccc(F)cc1 (centres unmarked) [Compound X, 5-(4-Fluorobenzyl)-2-(pyridin-2-ylimino)thiazolidin-4-one] | able to antagonize free fatty acid stimulated cell proliferation |  |  |  |  | 
2 | O=C1NC(=Nc2ccc(Cl)cc2)SC1Cc1cccc(C(F)(F)F)c1 (centres unmarked) [Compound Y, 5-(3-(Trifluoromethyl)benzyl)-2-(4-chlorophenylimino)thiazolidin-4-one] | able to antagonize free fatty acid stimulated cell proliferation | lack of cells displaying fibroblast morphology | low cell density | accumulation of cells displaying morphology indicative of macrophage/monocyte | markedly reduced | a frequent finding
3 | Cc1ccc(N=C2NC(=O)C(Cc3cccc(C(F)(F)F)c3)S2)cc1 (centres unmarked) [Compound Z, 5-(3-(Trifluoromethyl)benzyl)-2-(p-tolylimino)thiazolidin-4-one] | able to antagonize free fatty acid stimulated cell proliferation |  |  |  |  | 
